Assay [1] has as its target T1, ERα (Homo sapiens, UniProt P03372).
T1 construct: the ERα LBD was amplified by polymerase chain reaction and subcloned into the pGEX-6P-1 vector; made in house; host or cells: Escherichia coli BL21α
T1 sequence (P03372 311-547 limits assumed): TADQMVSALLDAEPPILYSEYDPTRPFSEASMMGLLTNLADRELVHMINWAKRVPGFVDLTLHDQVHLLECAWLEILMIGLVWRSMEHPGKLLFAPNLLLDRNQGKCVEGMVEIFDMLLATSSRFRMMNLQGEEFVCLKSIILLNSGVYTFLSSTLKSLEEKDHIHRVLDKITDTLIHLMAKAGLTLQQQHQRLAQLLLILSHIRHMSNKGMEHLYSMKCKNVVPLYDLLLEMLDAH
Briefly: Competitive binding assay using [3H]E2 against GST-fused ERα LBD. An excerpt:
The ERα cDNA clone was purchased from OriGene Technologies, Inc. (Rockville, MD, USA). For construction of the expression plasmid, the ERα LBD was amplified by polymerase chain reaction and subcloned into the pGEX-6P-1 vector (GE Healthcare, Chicago, IL, USA) to obtain as a GST-fused protein. The GST-fused ERα -LBD was expressed in Escherichia coli BL21α cells and purified using Glutathione-Sepharose 4B (GE Healthcare), followed by gel filtration on a Sephadex G-10 column (GE Healthcare).
We performed the radioligand binding assays for ERα according to previously reported by method. […] GST-ERα-LBD (20 ng) was incubated with a series of [^3H]E2 (0.1–30 nM) in a total volume of 100 μL of binding buffer [10% glycerol, 10 mM Tris, 1 mM EGTA, 1 mM EDTA, 1 mM sodium vanadate (V), 0.5 mM phenylmethylsulfonyl fluoride, and 0.2 mM leupeptin (pH 7.4)] for 2 h at 20 °C in order to estimate total binding. Specific binding was calculated by subtracting the nonspecific binding determined by addition of 10 μM non-radiolabeled E2 to another set of working solutions from the observed total binding. After incubation, free radioligand was removed by addition and incubation of 100 μL 0.4% dextran-coated charcoal (Sigma-Aldrich) in phosphate-buffered saline (PBS; pH 7.4) on ice for 10 min. After centrifugation for 10 min at 15,000 rpm, the radioactivity of each supernatant was measured using a liquid scintillation counter (LS6500; Beckman Coulter, Fullerton, CA, USA). The data of the calculated specific binding of [^3H]E2 were assessed by Scatchard plot analysis.
The binding affinities of the test compounds were evaluated by competitive binding assays. Each chemical was dissolved in DMSO to prepare a 1.0-mM stock solution, followed by subsequent incubation of serial dilutions (1 pM to 10 μM) with GST- ERα-LBD (20 ng) and [^3H]E2 (5 nM, final) for 2 hrs at 20 °C to assess their ability to hinder the binding of [^3H]E2. Free radioligand was absorbed by 0.4% dextran-coated charcoal for the saturation binding assay and removed by the vacuum filtration system using a 96-well filtration plate (MultiScreenHTS HV; […] pore size; Merck KGaA, Darmstadt, Germany). The radioactivities of the eluents were measured using a TopCount NXT system (PerkinElmer) for 3 min/well.

The target of assay [2] is T2, ERα (Homo sapiens, UniProt P03372).
T2 construct: expressed in transfected cells; host or cells: HeLa cells
T2 sequence (P03372 1-595): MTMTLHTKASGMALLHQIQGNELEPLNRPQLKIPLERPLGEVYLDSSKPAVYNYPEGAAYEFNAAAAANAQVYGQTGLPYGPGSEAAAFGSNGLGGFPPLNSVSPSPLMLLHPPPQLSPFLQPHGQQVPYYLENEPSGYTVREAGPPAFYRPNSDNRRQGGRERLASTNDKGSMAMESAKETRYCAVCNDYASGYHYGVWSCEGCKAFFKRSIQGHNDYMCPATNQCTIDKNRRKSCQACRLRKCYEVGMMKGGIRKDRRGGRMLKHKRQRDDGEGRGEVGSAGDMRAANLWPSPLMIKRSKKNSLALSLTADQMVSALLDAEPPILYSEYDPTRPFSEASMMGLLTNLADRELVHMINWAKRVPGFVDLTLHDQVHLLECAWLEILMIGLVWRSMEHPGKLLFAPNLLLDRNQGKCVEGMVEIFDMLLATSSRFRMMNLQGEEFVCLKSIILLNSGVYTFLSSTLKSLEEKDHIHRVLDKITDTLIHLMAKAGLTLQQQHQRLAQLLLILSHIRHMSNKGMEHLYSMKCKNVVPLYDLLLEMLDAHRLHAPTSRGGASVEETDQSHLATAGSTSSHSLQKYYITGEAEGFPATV
Briefly: Luciferase-reporter assay for agonist activity in transiently transfected HeLa cells. The assay is classed as cell-based. The following applies: for ERα agonist / transcriptional activity (in words): reporter-gene assay, 0.1-10 μM. The protocol: HeLa cells were maintained in Eagle’s minimum essential medium (MEM; Nissui Pharmaceutical Co., Ltd, Tokyo, Japan) supplemented with 10% (v/v) foetal bovine serum treated with dextran-coated charcoal at 37 °C under 5% CO2. To analyse the agonist activity, HeLa cells were incubated at a density of 5 × 10^5 cells per 60-mm dish for 24 h, followed by transfection of 3 μg of the reporter plasmid (3 × ERE/pGL4.23) and 1 μg of the ERα expression plasmid (ERα/pcDNA3.1) using Lipofectamine LTX reagent (Thermo Fisher Scientific, Waltham, MA, USA) according to the manufacturer’s instructions. After 24 h, cells were harvested, suspended in Eagle’s MEM, and seeded into 96-well plates at 5 × 10^4 cells/well, followed by treatment with a series of the test compounds diluted with 1% bovine serum albumin (BSA)/PBS (v/v) to prepare different concentrations (0–10 μM). After a 24-h incubation, luciferase activity was measured using a Luciferase Assay system (Promega, Madison, WI, USA) according to the manufacturer’s instructions. […] Cells treated only with 1% BSA/PBS were used as a vehicle control. Each assay was performed in triplicate and repeated at least three times.

Assay [3] deals with T2, ERα. In words: Luciferase-reporter assay for antagonist activity in the presence of E2, HeLa cells. The assay is classed as cell-based. Conditions: for ERα antagonist activity against E2-induced transcription (in words): 1 pM to 10 μM compound in a solution of E2 (1 nM); for reduction of E2-mediated ERα activity: highest concentration, 10 μM. The protocol:
HeLa cells were maintained in Eagle’s minimum essential medium (MEM; Nissui Pharmaceutical Co., Ltd, Tokyo, Japan) supplemented with 10% (v/v) foetal bovine serum treated with dextran-coated charcoal at 37 °C under 5% CO2. To analyse the agonist activity, HeLa cells were incubated at a density of 5 × 10^5 cells per 60-mm dish for 24 h, followed by transfection of 3 μg of the reporter plasmid (3 × ERE/pGL4.23) and 1 μg of the ERα expression plasmid (ERα/pcDNA3.1) using Lipofectamine LTX reagent (Thermo Fisher Scientific, Waltham, MA, USA) according to the manufacturer’s instructions. After 24 h, cells were harvested, suspended in Eagle’s MEM, and seeded into 96-well plates at 5 × 10^4 cells/well, followed by treatment with a series of the test compounds diluted with 1% bovine serum albumin (BSA)/PBS (v/v) to prepare different concentrations (0–10 μM). After a 24-h incubation, luciferase activity was measured using a Luciferase Assay system (Promega, Madison, WI, USA) according to the manufacturer’s instructions. Briefly, cells were lysed using reporter lysis buffer (Promega), and luminescence was measured using a Wallace 1420 ARVOsx multilabel counter (PerkinElmer). Cells treated only with 1% BSA/PBS were used as a vehicle control. Each assay was performed in triplicate and repeated at least three times.
To evaluate antagonistic activity, we examined serial concentrations of test compounds (0–10 μM, final) in the presence of 1 nM or 10 nM concentrations of E2, which normally induces basal levels of ERα-related transcriptional activity.
A general note: Reporter assays use an easily measured gene product as a stand-in for the process of interest.

For assay [4] the following is noted: contaminant of industrial BPA; cited from earlier work.
Where [5] appears, read: [3H][…] radioligand (5 nM), GST-ERα-LBD, mean ± SE, read-out: Binding affinity (IC50).
The mark [6] stands for this setting: [3H]17β-oestradiol radioligand (5 nM), GST-ERα-LBD, mean ± SE, read-out: Binding affinity (IC50).

“Also recorded” adds a separate entry of the source. Like-named read-outs stand apart in the source and are kept apart here.

Data on 13 compounds can be found in publication PMC6616570, “Discovery of novel oestrogen receptor α agonists and antagonists by screening a revisited privileged structure moiety for nuclear receptors” (Scientific Reports, 2019).

With `Oc1ccc(C(=C(Cl)Cl)c2ccc(O)cc2)cc1` [compound 1, bisphenol C], the IC50 on ERα [1] (setting [5]) is 0.00281 ± 0.00061 µM. Also, the “transcriptional activity relative to that of E2” value at ERα [2] (ERα reporter-gene assay) is ~ 60%. For the same compound, the “ERα agonist / transcriptional activity (in words)” value on ERα [2] is recorded as “apparent agonistic activity”. In addition, the “ERα antagonist activity against E2-induced transcription (in words)” value (“ERα antagonist activity” for short) on ERα [3] is given as “did not observe any antagonistic activity”.

Turning to `CC(C)CC(C)(c1ccc(O)cc1)c1ccc(O)cc1` [compound 2, 4,4′-(1,3-dimethylbuthylidene)bisphenol], the “estrogenic activity higher than laboratory grade BPA” value in assay [4] is 8 fold.

Take `CC(C)(c1ccc(O)cc1)c1cccc(C(C)(C)c2ccc(O)cc2)c1` [compound 7, bisphenol M]: the IC50 on ERα [1] came to 0.0568 ± 0.0117 µM. On ERα [2], the “ERα agonist / transcriptional activity (in words)” value is on record as “weak transcriptional activity”. Further, the “ERα agonist / transcriptional activity (in words)” value on ERα [2] (listed as BPM) was “almost no ERα-specific transcriptional activity”. At ERα [3], the “ERα antagonist activity” value was “inhibited the agonist activity of 1 nM E2 in a dose-dependent manner” and the “reduction of E2-mediated ERα activity” value is listed as “up to 90%”.

As for `Oc1ccc(C2(c3ccc(O)cc3)CCCCC2)cc1` [compound 8, bisphenol Z], at ERα [1] (setting [5]), the IC50 was determined as 0.0569 ± 0.0006 µM. Moreover, on ERα [2], the “ERα agonist / transcriptional activity (in words)” value is “apparent agonistic activity”.

As for `CC(C)(c1ccc(O)cc1)c1ccc(C(C)(c2ccc(O)cc2)c2ccc(O)cc2)cc1` [compound 10, α,α,α′-tris(4-hydroxyphenyl)-1-ethyl-4-isopropylbenzene], on ERα [1] (setting [6]), the IC50 came to 0.0617 ± 0.0104 µM. The “ERα agonist / transcriptional activity (in words)” value at ERα [2] is recorded as “weak transcriptional activity; also recorded: almost no ERα-specific transcriptional activity”. In addition, at ERα [3], the “ERα antagonist activity” value was “inhibited the agonist activity of 1 nM E2 in a dose-dependent manner” and the “reduction of E2-mediated ERα activity” value was “up to 90%”.

Turning to `CC(C)(c1ccc(O)cc1)c1ccc(C(C)(C)c2ccc(O)cc2)cc1` [compound 11, bisphenol P], the IC50 on ERα [1] (setting [6]) was determined as 0.176 ± 0.035 µM. The “ERα agonist / transcriptional activity (in words)” value at ERα [2] was “weak transcriptional activity”. Also, the “ERα agonist / transcriptional activity (in words)” value at ERα [2] (listed as BPP) is “almost no ERα-specific transcriptional activity”. Moreover, on ERα [3], the “ERα antagonist activity” value is listed as “inhibited the agonist activity of 1 nM E2 in a dose-dependent manner” and the “reduction of E2-mediated ERα activity” value is given as “up to 90%”.

Take `CCC(C)(c1ccc(O)cc1)c1ccc(O)cc1` [compound 12, bisphenol B]: at ERα [1] (setting [6]), the IC50 was 0.195 ± 0.044 µM. Also, the “ERα agonist / transcriptional activity (in words)” value on ERα [2] is “apparent agonistic activity”.

In the case of `CC(c1ccccc1)(c1ccc(O)cc1)c1ccc(O)cc1` [compound 13, bisphenol AP], the IC50 on ERα [1] (setting [6]) came out at 0.259 ± 0.041 µM. In addition, the “ERα agonist / transcriptional activity (in words)” value on ERα [2] is listed as “apparent agonistic activity”.

Turning to `Nc1cc(C(c2ccc(O)c(N)c2)(C(F)(F)F)C(F)(F)F)ccc1O` [compound 15, 2,2-bis(3-amino-4-hydroxyphenyl)hexafluoropropane], at ERα [1] (setting [6]), the IC50 amounted to 0.334 ± 0.112 µM. At ERα [2], the “ERα agonist / transcriptional activity (in words)” value is recorded as “apparent agonistic activity”.

On to `CC1(C)CC2(CC(C)(C)c3ccc(O)cc3O2)Oc2cc(O)ccc21` [compound 16, spirobicromane], for which the IC50 on ERα [1] (setting [6]) was 0.366 ± 0.02 µM. For the same compound, the “ERα agonist / transcriptional activity (in words)” value on ERα [2] is on record as “weak transcriptional activity”. Moreover, on ERα [3], the “ERα antagonist activity” value is on record as “inhibited the agonist activity of 1 nM E2 in a dose-dependent manner” and the “reduction of E2-mediated ERα activity” value was “up to 90%”.

Consider `Cc1cc(C(C)(C)c2ccc(C(C)(C)c3cc(C)c(O)c(C)c3)cc2)cc(C)c1O` [compound 18, α,α′-bis(4-hydroxy-3,5-dimethylphenyl)-1,4-diisopropylbenzene], for which the IC50 at ERα [1] (setting [6]) was determined as 0.733 ± 0.628 µM. Moreover, the “ERα agonist / transcriptional activity (in words)” value on ERα [2] was “weak transcriptional activity”. Besides, at ERα [3], the “ERα antagonist activity” value is “inhibited the agonist activity of 1 nM E2 in a dose-dependent manner” and the “reduction of E2-mediated ERα activity” value is listed as “up to 90%”.

`Nc1ccc(Oc2ccc(C(c3ccc(Oc4ccc(N)cc4)cc3)(C(F)(F)F)C(F)(F)F)cc2)cc1` [compound 19, 2,2-bis[4-(4-aminophenoxy)phenyl]hexafluoropropane]: the IC50 at ERα [1] (setting [6]) amounted to 1.03 ± 0.375 µM. For the same compound, the “ERα agonist / transcriptional activity (in words)” value on ERα [2] is on record as “weak transcriptional activity”.

With `Oc1ccc(C2(c3ccc(O)cc3)c3ccccc3-c3ccccc32)cc1` [compound 22, 9,9-bis(4-hydroxyphenyl)fluorine], at ERα [1] (setting [6]), the IC50 was 2.23 ± 0.202 µM. Moreover, the “binding to the ERα LBD (in words)” value at ERα [1] (competitive binding assay using [3H]E2) was “directly binds to the ERα LBD”. Moreover, the “ERα agonist / transcriptional activity (in words)” value at ERα [2] is on record as “weak transcriptional activity”.

By IC50 is commonly meant the point on the concentration scale where inhibition reaches its midpoint.
